Experimental data: publication doi:10.1101/2024.05.26.595989v1 (biorxiv, 2024)
Read-outs that look alike come from different tables or passages of the source.

What was measured:
[1] = target: T1, PDI (PDIA1), purified / recombinant wild-type human PDI (Homo sapiens, UniProt P07237); assay: biochemical
[2] = target: T1, PDI (PDIA1), purified / recombinant wild-type human PDI; assay: biochemical; remark: listed apart in the source

T1 sequence (P07237 18-508): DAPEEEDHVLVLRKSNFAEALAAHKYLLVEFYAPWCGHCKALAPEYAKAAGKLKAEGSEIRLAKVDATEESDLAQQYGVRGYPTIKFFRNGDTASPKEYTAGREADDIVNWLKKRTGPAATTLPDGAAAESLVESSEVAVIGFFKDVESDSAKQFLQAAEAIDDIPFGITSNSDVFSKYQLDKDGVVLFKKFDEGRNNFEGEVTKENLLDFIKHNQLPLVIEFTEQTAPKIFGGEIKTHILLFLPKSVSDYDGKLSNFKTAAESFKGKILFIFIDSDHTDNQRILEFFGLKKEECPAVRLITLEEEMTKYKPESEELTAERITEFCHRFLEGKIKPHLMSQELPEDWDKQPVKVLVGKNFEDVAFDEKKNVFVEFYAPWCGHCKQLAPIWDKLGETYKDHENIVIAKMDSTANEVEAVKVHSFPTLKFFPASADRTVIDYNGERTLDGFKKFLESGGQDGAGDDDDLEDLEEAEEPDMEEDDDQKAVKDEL

Row | SMILES | Kd [1] | Kd [2]
1 | C[C@]12CC[C@@H]3c4cc(O)c(O)cc4CC[C@H]3[C@@H]1CCC2=O [2-OH-E1, 1,3,5([10])-Estratrien-2,3-diol-17-one] | 0.0242 µM | –
2 | C[C@]12CC[C@@H]3c4cc(O)c(O)cc4CC[C@H]3[C@@H]1CC[C@@H]2O [2-OH-E2, 1,3,5([10])-estratrien-2,3,17β-triol] | – | 0.0613 to 0.0683 µM
